Patent US20140179681A1, “METHODS AND COMPOSITIONS OF TARGETED DRUG DEVELOPMENT” (priority 2010, published 2014)
Entries after “also recorded” stand apart in the source; their conditions may differ.

How the values were obtained:
EGF binding site = biological target: T1, EGF binding site (Rattus norvegicus, UniProt G3V6K6); test: Inhibition of [125I]EGF binding (EGF inhibitor assay, NovaScreen); conditions: determined at 25 μM; rat liver membranes; result in words
T1 construct: Receptor source was rat liver membranes; tissue NovaScreen BioSciences; host or cells: rat liver membranes
Protocol: Identified compounds, representing various pharmacophore models, were tested for ability to inhibit EGFR at 25 μM.
AD4-compounds were identified using pharmacophore models (see Example 3, Example 4) and then were docked with the binding site of EGFR (SEQ ID NO: 1) that is recognized by defined CDRs of cetuximab. The inhibition of epidermal growth factor binding by AD4-compounds was then determined (NovaScreen BioSciences, Hanover, Md.). Inhibition of EGF binding was determined at 25 μM concentration.
Receptor source was rat liver membranes. The radioligand was [^125I]EGF ([…]) at a final ligand concentration of 0.36 nM. A non-specific determinant was used as EGF—[100 nM]. The reference compound and positive control was EGF. Reactions were carried out in 10 mM HEPES (pH 7.4) containing 0.1% BSA at 25° C. for 60 minutes. The reaction was terminated by rapid vacuum filtration onto glass fiber filters. Radioactivity trapped onto the filters was determined and compared to control values to ascertain any interactions of test compounds with the EGF binding site. The EGF inhibitor assays were modified from, for example, Mukku (1984) J. Biol. Chem. 259, 6543-6546; Duh et al. (1990) World J. Surgery 14, 410-418; Lokeshwar et al. (1989) J. Biol. Chem. 264(32), 19318-19326.

EGFR = biological target: T2, EGFR (Homo sapiens, UniProt P00533); test: Titration of known EGFR inhibitors in absence or presence of a fixed concentration of AD4 compound (% inhibition of EGFR); type: cell-based; conditions: Tykerb alone or in combination with the compound; result in words
T2 construct: A431 cells (ATCC # CRL-1555) were grown in Dulbecco's Modified Eagle Medium; host or cells: A431

[1] = test system: EGF receptor-mediated cell proliferation; test: Combination studies (median effect analysis: IC50, CI, DRI) in cell proliferation assay (MTT assay); conditions: for CI @ ED90: Combination Index at 90% inhibition; for DRI @ ED97: Dose Reduction Index
From the text: Studies were initiated to evaluate the ability of various compounds disclosed herein to synergize with several compounds known to inhibit the function of the EGF receptor in a cell proliferation assay (MTT assay).

T1 sequence (G3V6K6 25-1209): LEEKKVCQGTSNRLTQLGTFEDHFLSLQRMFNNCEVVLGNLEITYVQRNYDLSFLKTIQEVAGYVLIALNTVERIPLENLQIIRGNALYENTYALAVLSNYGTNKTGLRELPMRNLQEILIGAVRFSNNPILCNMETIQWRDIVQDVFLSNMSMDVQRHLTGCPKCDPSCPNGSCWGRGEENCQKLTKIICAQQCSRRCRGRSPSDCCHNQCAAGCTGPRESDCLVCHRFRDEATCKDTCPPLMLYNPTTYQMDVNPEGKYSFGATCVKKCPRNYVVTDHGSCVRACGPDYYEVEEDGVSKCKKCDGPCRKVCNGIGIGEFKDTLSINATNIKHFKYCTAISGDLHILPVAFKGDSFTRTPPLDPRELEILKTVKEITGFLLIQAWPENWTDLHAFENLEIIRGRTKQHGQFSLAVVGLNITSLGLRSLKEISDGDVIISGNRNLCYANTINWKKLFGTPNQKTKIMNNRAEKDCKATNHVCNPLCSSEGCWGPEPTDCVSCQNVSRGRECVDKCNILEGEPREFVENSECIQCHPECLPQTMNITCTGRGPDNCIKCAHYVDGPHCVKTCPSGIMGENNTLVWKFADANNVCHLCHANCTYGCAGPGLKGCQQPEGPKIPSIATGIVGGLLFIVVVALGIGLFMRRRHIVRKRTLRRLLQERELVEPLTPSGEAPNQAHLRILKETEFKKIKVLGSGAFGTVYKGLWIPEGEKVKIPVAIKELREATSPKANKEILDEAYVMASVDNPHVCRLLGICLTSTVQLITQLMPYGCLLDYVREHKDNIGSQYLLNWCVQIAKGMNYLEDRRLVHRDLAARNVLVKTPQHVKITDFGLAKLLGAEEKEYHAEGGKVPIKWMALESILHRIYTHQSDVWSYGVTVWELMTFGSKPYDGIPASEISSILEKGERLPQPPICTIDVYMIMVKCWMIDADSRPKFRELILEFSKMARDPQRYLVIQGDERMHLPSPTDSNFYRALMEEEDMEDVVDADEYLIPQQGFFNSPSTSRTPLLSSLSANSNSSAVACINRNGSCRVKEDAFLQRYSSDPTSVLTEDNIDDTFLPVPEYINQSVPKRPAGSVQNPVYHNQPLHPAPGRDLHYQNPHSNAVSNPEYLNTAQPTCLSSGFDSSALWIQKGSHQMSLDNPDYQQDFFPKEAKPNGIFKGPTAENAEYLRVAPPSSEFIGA
T2 sequence (P00533 25-1210): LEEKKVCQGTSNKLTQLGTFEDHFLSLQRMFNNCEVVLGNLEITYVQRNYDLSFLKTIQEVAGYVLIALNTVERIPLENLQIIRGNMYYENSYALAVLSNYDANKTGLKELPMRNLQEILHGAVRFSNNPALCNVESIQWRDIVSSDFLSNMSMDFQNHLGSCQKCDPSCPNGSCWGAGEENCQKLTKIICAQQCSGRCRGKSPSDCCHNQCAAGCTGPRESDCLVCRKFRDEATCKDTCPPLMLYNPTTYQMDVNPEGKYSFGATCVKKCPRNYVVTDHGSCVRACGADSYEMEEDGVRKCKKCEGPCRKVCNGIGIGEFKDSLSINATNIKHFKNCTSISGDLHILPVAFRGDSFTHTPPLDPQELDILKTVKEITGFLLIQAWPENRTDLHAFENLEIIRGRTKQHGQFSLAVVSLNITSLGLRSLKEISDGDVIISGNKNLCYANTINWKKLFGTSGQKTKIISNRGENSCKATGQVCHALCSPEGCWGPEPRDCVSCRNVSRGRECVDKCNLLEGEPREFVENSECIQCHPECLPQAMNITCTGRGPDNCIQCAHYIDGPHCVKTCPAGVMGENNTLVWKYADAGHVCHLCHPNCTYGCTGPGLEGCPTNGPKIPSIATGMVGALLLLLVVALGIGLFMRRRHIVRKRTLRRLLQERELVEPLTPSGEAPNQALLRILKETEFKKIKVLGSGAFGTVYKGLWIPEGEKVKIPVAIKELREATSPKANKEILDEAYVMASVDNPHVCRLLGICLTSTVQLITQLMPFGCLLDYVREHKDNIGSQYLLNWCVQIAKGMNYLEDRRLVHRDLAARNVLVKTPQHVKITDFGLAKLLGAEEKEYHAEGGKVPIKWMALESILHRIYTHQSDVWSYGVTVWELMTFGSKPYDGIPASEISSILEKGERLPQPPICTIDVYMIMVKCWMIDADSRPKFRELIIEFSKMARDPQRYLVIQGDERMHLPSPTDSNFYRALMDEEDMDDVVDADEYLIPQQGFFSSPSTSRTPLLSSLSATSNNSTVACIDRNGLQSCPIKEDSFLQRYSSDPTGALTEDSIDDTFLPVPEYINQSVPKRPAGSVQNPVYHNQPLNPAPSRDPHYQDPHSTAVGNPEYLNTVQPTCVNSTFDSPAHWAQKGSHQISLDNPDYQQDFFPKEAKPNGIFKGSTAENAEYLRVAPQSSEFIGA

shift in Tykerb's dose-response curve (EGFR)	SMILES	inhibition of epidermal growth factor binding to its receptor (EGF binding site)	CI @ ED90 ([1]; combination with Iressa)	CI @ ED90 ([1]; combination with Tykerb)	DRI @ ED97 ([1]; effect of the test compound on Iressa)	DRI @ ED97 ([1]; effect of the test compound on Tykerb)	DRI (effect of the test compound on Tykerb / Iressa) ([1]; result in words)
–	O=C(NC(=S)Nc1ccc(S(=O)(=O)NCCc2ccccc2)cc1)C1CC1 [AD4-1886]	inhibitor of epidermal growth factor binding to its receptor	–	–	–	–	–
–	Cc1ccc2c(C)nc(Nc3nc(-c4ccccc4)cc(=O)[nH]3)nc2c1 [AD4-10381]	inhibitor of epidermal growth factor binding to its receptor	–	–	–	–	–
leftward shift (i.e., greater potency)	Cc1ccc2c(C)nc(Nc3nc(-c4ccccc4C)cc(=O)[nH]3)nc2c1 [AD4-11511]	–	0.93	0.87	96	84	very high DRI values; also recorded: fairly high DRI
